Laboratory results taken from patent US11191820B2, “Method for inducing early T memory response with short peptides anti-tumor vaccine” (OSE IMMUNOTHERAPEUTICS, priority 2015, dated 2021).
Like-named read-outs stand apart in the source and are kept apart here.

Legend:
advanced NSCLC = conditions: cited from earlier work
central memory T cells [1] = assay: Central memory T cell cultured ELISPOT, phase 2 trial in advanced NSCLC; assay type: in vivo, human
How it was run: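 Patient PBMC were pre-stimulated for 10 days with 10 μg/ml peptide plus rIL2 (10 U/ml, days 1, 4, 7), then replated at 5×10^4/well with irradiated autologous PBMC and 10 μg/ml peptide, and SFC were counted. A response was positive if >5 SFC above, and > mean+2 SD of, the irrelevant HBV epitope, and twofold the pre-vaccination response plus 2 SD.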

central memory T cells [2] = assay: Cultured IFN-γ ELISPOT after 10-day in vitro stimulation of PBMC, phase 1/2 NSCLC trial of OSE-2101; assay type: in vivo, human; design: key to net SFC of vaccine positive CTL responses: —, indicates SFC response did not meet criteria and vaccine response was negative; conditions: for Mean SFC / No. Positive Responses: 6 NSCLC patients
How it was run: (§1)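 Patient PBMC (pre-treatment, Week 9, Week 18, after s.c. dosing every 3 weeks) were stimulated 10 days with 10 μg/ml of each epitope plus rIL-2 10 U/ml on days 1, 4 and 7. Cells were then tested 20 h with irradiated autologous PBMC and 10 μg/ml vaccine or wild-type peptide. Net SFC per 5×10^4 cells, irrelevant HBV peptide subtracted.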

central memory T cells [3] = assay: Cultured IFN-γ ELISPOT after 10-day in vitro stimulation of PBMC, phase 1/2 colon cancer trial of OSE-2101; assay type: in vivo, human; design: key to net SFC of vaccine positive CTL responses: —, indicates SFC response did not meet criteria and vaccine response was negative; conditions: for Mean SFC: 10 colon patients
How it was run: as §1

C#Cc1cccc(Nc2ncnc3cc(OCCOC)c(OCCOC)cc23)c1 [Erlotinib]
Progression-Free Survival (PFS) (advanced NSCLC; advanced NSCLC after at least first line failure (Shepherd 2005)): 2.2 months

Nc1nc2[nH]cc(CCc3ccc(C(=O)N[C@@H](CCC(=O)O)C(=O)O)cc3)c2c(=O)[nH]1 [pemetrexed]
median PFS (advanced NSCLC; phase 3, second line NSCLC (Bareschino 2011)): 2.9 months

YLQLVFGIEV [MAGE2.157 WT]
% of patients with positive CTL/central memory T cell response (central memory T cells [1]; phase 2, month 9): 57%
patients with positive CTL/central memory T cell response / patients tested (central memory T cells [1]; phase 2, month 9): 4/7
% of patients with positive CTL/central memory T cell response (central memory T cells [1]; phase 2, month 12): 50%
patients with positive CTL/central memory T cell response / patients tested (central memory T cells [1]; phase 2, month 12): 2/4
% of patients with positive CTL/central memory T cell response (central memory T cells [1]; phase 2, week 9): 27%
patients with positive CTL/central memory T cell response / patients tested (central memory T cells [1]; phase 2, week 9): 9/33
% of patients with positive CTL/central memory T cell response (central memory T cells [1]; phase 2, week 18): 28%
patients with positive CTL/central memory T cell response / patients tested (central memory T cells [1]; phase 2, week 18): 9/32
% of patients with positive CTL/central memory T cell response (central memory T cells [1]; phase 2, week 30): 43%
patients with positive CTL/central memory T cell response / patients tested (central memory T cells [1]; phase 2, week 30): 10/23
Mean SFC (central memory T cells [2]; Week 9): 30.0 SFC per 50,000 cells
No. Positive Responses (central memory T cells [2]; Week 9): 2
Mean SFC (central memory T cells [2]; Week 18): 66.8 SFC per 50,000 cells
No. Positive Responses (central memory T cells [2]; Week 18): 2
net SFC of vaccine positive CTL responses (central memory T cells [2]; NSCLC patient 201, Week 9): —
net SFC of vaccine positive CTL responses (central memory T cells [2]; NSCLC patient 201, Week 18): —
net SFC of vaccine positive CTL responses (central memory T cells [2]; NSCLC patient 502, Week 9): 9.3 SFC per 50,000 cells
net SFC of vaccine positive CTL responses (central memory T cells [2]; NSCLC patient 502, Week 18): —
net SFC of vaccine positive CTL responses (central memory T cells [2]; NSCLC patient 504, Week 9): 50.7 SFC per 50,000 cells
net SFC of vaccine positive CTL responses (central memory T cells [2]; NSCLC patient 504, Week 18): 124.7 SFC per 50,000 cells
net SFC of vaccine positive CTL responses (central memory T cells [2]; NSCLC patient 505, Week 9): —
net SFC of vaccine positive CTL responses (central memory T cells [2]; NSCLC patient 505, Week 18): —
net SFC of vaccine positive CTL responses (central memory T cells [2]; NSCLC patient 532, Week 9): —
net SFC of vaccine positive CTL responses (central memory T cells [2]; NSCLC patient 532, Week 18): —
net SFC of vaccine positive CTL responses (central memory T cells [2]; NSCLC patient 651, Week 9): —
net SFC of vaccine positive CTL responses (central memory T cells [2]; NSCLC patient 651, Week 18): 9.0 SFC per 50,000 cells
Mean SFC (central memory T cells [3]; Week 9): 246.0 SFC per 50,000 cells
Mean SFC (central memory T cells [3]; Week 18): 418.1 SFC per 50,000 cells
net SFC of vaccine positive CTL responses (central memory T cells [3]; colon patient 551, Week 9): —
net SFC of vaccine positive CTL responses (central memory T cells [3]; colon patient 551, Week 18): 45.7 SFC per 50,000 cells
net SFC of vaccine positive CTL responses (central memory T cells [3]; colon patient 601, Week 9): —
net SFC of vaccine positive CTL responses (central memory T cells [3]; colon patient 601, Week 18): —
net SFC of vaccine positive CTL responses (central memory T cells [3]; colon patient 602, Week 9): —
net SFC of vaccine positive CTL responses (central memory T cells [3]; colon patient 602, Week 18): —
net SFC of vaccine positive CTL responses (central memory T cells [3]; colon patient 603, Week 9): 320.0 SFC per 50,000 cells
net SFC of vaccine positive CTL responses (central memory T cells [3]; colon patient 603, Week 18): —
net SFC of vaccine positive CTL responses (central memory T cells [3]; colon patient 604, Week 9): —
net SFC of vaccine positive CTL responses (central memory T cells [3]; colon patient 604, Week 18): —
net SFC of vaccine positive CTL responses (central memory T cells [3]; colon patient 605, Week 9): —
net SFC of vaccine positive CTL responses (central memory T cells [3]; colon patient 605, Week 18): —
net SFC of vaccine positive CTL responses (central memory T cells [3]; colon patient 606, Week 9): —
net SFC of vaccine positive CTL responses (central memory T cells [3]; colon patient 606, Week 18): 24.7 SFC per 50,000 cells
net SFC of vaccine positive CTL responses (central memory T cells [3]; colon patient 607, Week 9): 172.0 SFC per 50,000 cells
net SFC of vaccine positive CTL responses (central memory T cells [3]; colon patient 607, Week 18): 1184.0 SFC per 50,000 cells
net SFC of vaccine positive CTL responses (central memory T cells [3]; colon patient 608, Week 9): —
net SFC of vaccine positive CTL responses (central memory T cells [3]; colon patient 608, Week 18): —
net SFC of vaccine positive CTL responses (central memory T cells [3]; colon patient 609, Week 9): —
net SFC of vaccine positive CTL responses (central memory T cells [3]; colon patient 609, Week 18): —

YLSGADLNL [CEA.605D6 A]
% of patients with positive CTL/central memory T cell response (central memory T cells [1]; phase 2, month 9): 14%
patients with positive CTL/central memory T cell response / patients tested (central memory T cells [1]; phase 2, month 9): 1/7
% of patients with positive CTL/central memory T cell response (central memory T cells [1]; phase 2, month 12): 25%
patients with positive CTL/central memory T cell response / patients tested (central memory T cells [1]; phase 2, month 12): 1/4
% of patients with positive CTL/central memory T cell response (central memory T cells [1]; phase 2, week 9): 27%
patients with positive CTL/central memory T cell response / patients tested (central memory T cells [1]; phase 2, week 9): 9/33
% of patients with positive CTL/central memory T cell response (central memory T cells [1]; phase 2, week 18): 31%
patients with positive CTL/central memory T cell response / patients tested (central memory T cells [1]; phase 2, week 18): 10/32
% of patients with positive CTL/central memory T cell response (central memory T cells [1]; phase 2, week 30): 35%
patients with positive CTL/central memory T cell response / patients tested (central memory T cells [1]; phase 2, week 30): 8/23
Mean SFC (central memory T cells [2]; Week 9): 20.7 SFC per 50,000 cells
No. Positive Responses (central memory T cells [2]; Week 9): 1
Mean SFC (central memory T cells [2]; Week 18): 137.5 SFC per 50,000 cells
No. Positive Responses (central memory T cells [2]; Week 18): 2
net SFC of vaccine positive CTL responses (central memory T cells [2]; NSCLC patient 201, Week 9): —
net SFC of vaccine positive CTL responses (central memory T cells [2]; NSCLC patient 201, Week 18): —
net SFC of vaccine positive CTL responses (central memory T cells [2]; NSCLC patient 502, Week 9): —
net SFC of vaccine positive CTL responses (central memory T cells [2]; NSCLC patient 502, Week 18): —
net SFC of vaccine positive CTL responses (central memory T cells [2]; NSCLC patient 504, Week 9): 20.7 SFC per 50,000 cells
net SFC of vaccine positive CTL responses (central memory T cells [2]; NSCLC patient 504, Week 18): 214.3 SFC per 50,000 cells
net SFC of vaccine positive CTL responses (central memory T cells [2]; NSCLC patient 505, Week 9): —
net SFC of vaccine positive CTL responses (central memory T cells [2]; NSCLC patient 505, Week 18): 60.7 SFC per 50,000 cells
net SFC of vaccine positive CTL responses (central memory T cells [2]; NSCLC patient 532, Week 9): —
net SFC of vaccine positive CTL responses (central memory T cells [2]; NSCLC patient 532, Week 18): —
net SFC of vaccine positive CTL responses (central memory T cells [2]; NSCLC patient 651, Week 9): —
net SFC of vaccine positive CTL responses (central memory T cells [2]; NSCLC patient 651, Week 18): —
Mean SFC (central memory T cells [3]; Week 9): 84.2 SFC per 50,000 cells
Mean SFC (central memory T cells [3]; Week 18): 283.3 SFC per 50,000 cells
net SFC of vaccine positive CTL responses (central memory T cells [3]; colon patient 551, Week 9): —
net SFC of vaccine positive CTL responses (central memory T cells [3]; colon patient 551, Week 18): —
net SFC of vaccine positive CTL responses (central memory T cells [3]; colon patient 601, Week 9): 88.3 SFC per 50,000 cells
net SFC of vaccine positive CTL responses (central memory T cells [3]; colon patient 601, Week 18): —
net SFC of vaccine positive CTL responses (central memory T cells [3]; colon patient 602, Week 9): —
net SFC of vaccine positive CTL responses (central memory T cells [3]; colon patient 602, Week 18): —
net SFC of vaccine positive CTL responses (central memory T cells [3]; colon patient 603, Week 9): 114.7 SFC per 50,000 cells
net SFC of vaccine positive CTL responses (central memory T cells [3]; colon patient 603, Week 18): —
net SFC of vaccine positive CTL responses (central memory T cells [3]; colon patient 604, Week 9): 70.0 SFC per 50,000 cells
net SFC of vaccine positive CTL responses (central memory T cells [3]; colon patient 604, Week 18): 413.3 SFC per 50,000 cells
net SFC of vaccine positive CTL responses (central memory T cells [3]; colon patient 605, Week 9): —
net SFC of vaccine positive CTL responses (central memory T cells [3]; colon patient 605, Week 18): —
net SFC of vaccine positive CTL responses (central memory T cells [3]; colon patient 606, Week 9): —
net SFC of vaccine positive CTL responses (central memory T cells [3]; colon patient 606, Week 18): —
net SFC of vaccine positive CTL responses (central memory T cells [3]; colon patient 607, Week 9): 72.7 SFC per 50,000 cells
net SFC of vaccine positive CTL responses (central memory T cells [3]; colon patient 607, Week 18): 414.7 SFC per 50,000 cells
net SFC of vaccine positive CTL responses (central memory T cells [3]; colon patient 608, Week 9): —
net SFC of vaccine positive CTL responses (central memory T cells [3]; colon patient 608, Week 18): —
net SFC of vaccine positive CTL responses (central memory T cells [3]; colon patient 609, Week 9): 75.3 SFC per 50,000 cells
net SFC of vaccine positive CTL responses (central memory T cells [3]; colon patient 609, Week 18): 22.0 SFC per 50,000 cells

nivolumab
median PFS (advanced NSCLC; phase 3 study in squamous NSCLC (Brahmer 2015)): 3.5 months
